Where a name gives a salt, the structure may show the parent alone.
Key:
JAK2 tyrosine kinase = molecular target: T1, JAK2 tyrosine kinase (Homo sapiens, UniProt O60674); test: Test 1: inhibitory activity to JAK2 tyrosine kinase (ELISA); assay type: biochemical; settings: 25 μM ATP in substrate solution, 30° C. for 1 hour, n=2
T1 construct: purchased Carnabioscience Co
Description: Test 1: Test for inhibitory activity to JAK2 and JAK3 tyrosine kinase 1. Preparation of Test Material
The test material was dissolved in dimethylsulfoxide (DMSO) to be 10 mM, and further diluted with DMSO to be 100-fold concentrations for measurement (1000, 300, 100, 30, 10, 3, 1, 0.3, 0.1, 0.03, 0.01 μM). In addition, solutions diluted with an assay buffer up to 20 times were used as solutions of the test material. As a negative control, a solution of DMSO diluted 20 times with an assay buffer was used. As the assay buffer, 15 mM Tris-Cl (pH 7.5), 0.01 v/v % Tween-20, and 1 mM dithiothreitol were used.
2. Measurement of the Activities of JAK2 and JAK3 Tyrosine Kinases
The activity was determined by ELISA. The solution of the test material (10 μl each; n=2) was placed in a streptavidine-coated 96 well plate (DELFIA Strip Plate 8×12 wells; Perkin Elmer), to which 20 μl each of substrate solution (625 nM biotin-labeled peptide substrate, 25 μM ATP, 25 mM MgCl2, 15 mM Tris-Cl (pH 7.5), 0.01 v/v % Tween-20, and 1 mM dithiothreitol), was added and stirred. Finally, 20 μl each of JAK2 tyrosine kinase (Carnabioscience Co.) (diluted to 0.75 nM with assay buffer) or JAK3 tyrosine kinase (Carnabioscience Co.) (diluted to 0.75 nM with assay buffer) was added, stirred and allowed to stand at 30° C. for 1 hour. The plate was washed 4 times with a washing buffer (50 mM Tris-Cl, pH 7.5, 150 mM NaCl, 0.02 v/v % Tween-20), and then a blocking buffer (0.1% Bovine Serum Albumin, 50 mM Tris-Cl, pH 7.5, 150 mM NaCl, 0.02 v/v % Tween-20)(150 μl each) was added for blocking at 30° C. for 30 minutes. Blocking buffer was removed, and there was added 100 μl each of horse radish peroxidase-labeled anti-phosphorylated tyrosin kinase antibody (BD Bioscience Co.) (diluted 10,000 times with blocking buffer). The plate was incubated at 30° C. for 30 minutes and then washed 4 times with a washing buffer, and 100 μl each of 3,3′,5,5′-tetramethylbenzidine (Sigma-Aldrich Co.) was added to develop color for 10 minutes. 0.1 M sulfuric acid (100 μl each) was added to stop the reaction. The absorbance was measured by means of a micro-plate reader (BIO-RAD; Model 3550) at 450 nm.
3. Analysis of the Results of the Measurement
The measured absorbance was subjected to a non-linear regression analysis by means of a SAS system (SAS Institute Inc.), and the concentration (IC50) of the test material which inhibited 50% of the activity of each tyrosine kinase was estimated.

JAK3 tyrosine kinase = molecular target: T2, JAK3 tyrosine kinase (Homo sapiens, UniProt P52333); test: Test 1: inhibitory activity to JAK3 tyrosine kinase (ELISA); assay type: biochemical; settings: 25 μM ATP in substrate solution, 30° C. for 1 hour, n=2
T2 construct: purchased Carnabioscience Co
T2 sequence (P52333 1-1124): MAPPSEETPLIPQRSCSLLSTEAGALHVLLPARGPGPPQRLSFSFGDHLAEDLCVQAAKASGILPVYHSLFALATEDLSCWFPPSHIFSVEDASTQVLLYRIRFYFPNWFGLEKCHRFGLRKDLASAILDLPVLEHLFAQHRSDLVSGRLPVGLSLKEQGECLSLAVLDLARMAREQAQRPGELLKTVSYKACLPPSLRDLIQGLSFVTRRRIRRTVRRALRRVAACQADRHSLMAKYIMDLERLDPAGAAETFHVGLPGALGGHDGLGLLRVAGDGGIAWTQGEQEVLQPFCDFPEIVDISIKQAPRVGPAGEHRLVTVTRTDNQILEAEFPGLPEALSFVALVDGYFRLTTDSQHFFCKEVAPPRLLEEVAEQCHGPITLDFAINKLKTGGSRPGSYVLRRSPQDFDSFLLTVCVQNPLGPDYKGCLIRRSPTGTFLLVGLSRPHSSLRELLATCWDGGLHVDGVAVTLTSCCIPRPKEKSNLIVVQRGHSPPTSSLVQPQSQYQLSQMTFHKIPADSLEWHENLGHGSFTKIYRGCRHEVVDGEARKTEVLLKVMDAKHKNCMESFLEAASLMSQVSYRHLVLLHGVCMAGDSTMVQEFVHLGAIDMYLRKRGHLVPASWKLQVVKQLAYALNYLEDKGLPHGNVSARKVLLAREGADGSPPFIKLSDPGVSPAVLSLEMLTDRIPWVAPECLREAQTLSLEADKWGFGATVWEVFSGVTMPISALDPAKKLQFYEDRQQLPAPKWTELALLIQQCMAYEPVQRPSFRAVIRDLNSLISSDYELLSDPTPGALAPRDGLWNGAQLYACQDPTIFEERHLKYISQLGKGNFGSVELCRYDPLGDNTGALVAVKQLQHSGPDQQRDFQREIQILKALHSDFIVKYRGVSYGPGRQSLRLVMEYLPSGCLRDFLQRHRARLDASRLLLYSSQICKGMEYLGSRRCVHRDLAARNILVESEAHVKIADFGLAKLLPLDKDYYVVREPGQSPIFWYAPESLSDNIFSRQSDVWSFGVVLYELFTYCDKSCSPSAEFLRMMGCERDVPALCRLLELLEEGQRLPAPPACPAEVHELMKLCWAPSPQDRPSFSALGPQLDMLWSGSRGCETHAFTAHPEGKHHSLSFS
Description: Test 1: Test for inhibitory activity to JAK2 and JAK3 tyrosine kinase 1. […] The test material was dissolved in dimethylsulfoxide (DMSO) to be 10 mM, and further diluted with DMSO to be 100-fold concentrations for measurement (1000, 300, 100, 30, 10, 3, 1, 0.3, 0.1, 0.03, 0.01 μM). In addition, solutions diluted with an assay buffer up to 20 times were used as solutions of the test material. As a negative control, a solution of DMSO diluted 20 times with an assay buffer was used. […] 2. Measurement of the Activities of JAK2 and JAK3 Tyrosine Kinases The activity was determined by ELISA. […] The absorbance was measured by means of a micro-plate reader (BIO-RAD; Model 3550) at 450 nm. 3. Analysis of the Results of the Measurement The measured absorbance was subjected to a non-linear regression analysis by means of a SAS system (SAS Institute Inc.), and the concentration (IC50) of the test material which inhibited 50% of the activity of each tyrosine kinase was estimated.

T1 sequence (O60674 whole entry): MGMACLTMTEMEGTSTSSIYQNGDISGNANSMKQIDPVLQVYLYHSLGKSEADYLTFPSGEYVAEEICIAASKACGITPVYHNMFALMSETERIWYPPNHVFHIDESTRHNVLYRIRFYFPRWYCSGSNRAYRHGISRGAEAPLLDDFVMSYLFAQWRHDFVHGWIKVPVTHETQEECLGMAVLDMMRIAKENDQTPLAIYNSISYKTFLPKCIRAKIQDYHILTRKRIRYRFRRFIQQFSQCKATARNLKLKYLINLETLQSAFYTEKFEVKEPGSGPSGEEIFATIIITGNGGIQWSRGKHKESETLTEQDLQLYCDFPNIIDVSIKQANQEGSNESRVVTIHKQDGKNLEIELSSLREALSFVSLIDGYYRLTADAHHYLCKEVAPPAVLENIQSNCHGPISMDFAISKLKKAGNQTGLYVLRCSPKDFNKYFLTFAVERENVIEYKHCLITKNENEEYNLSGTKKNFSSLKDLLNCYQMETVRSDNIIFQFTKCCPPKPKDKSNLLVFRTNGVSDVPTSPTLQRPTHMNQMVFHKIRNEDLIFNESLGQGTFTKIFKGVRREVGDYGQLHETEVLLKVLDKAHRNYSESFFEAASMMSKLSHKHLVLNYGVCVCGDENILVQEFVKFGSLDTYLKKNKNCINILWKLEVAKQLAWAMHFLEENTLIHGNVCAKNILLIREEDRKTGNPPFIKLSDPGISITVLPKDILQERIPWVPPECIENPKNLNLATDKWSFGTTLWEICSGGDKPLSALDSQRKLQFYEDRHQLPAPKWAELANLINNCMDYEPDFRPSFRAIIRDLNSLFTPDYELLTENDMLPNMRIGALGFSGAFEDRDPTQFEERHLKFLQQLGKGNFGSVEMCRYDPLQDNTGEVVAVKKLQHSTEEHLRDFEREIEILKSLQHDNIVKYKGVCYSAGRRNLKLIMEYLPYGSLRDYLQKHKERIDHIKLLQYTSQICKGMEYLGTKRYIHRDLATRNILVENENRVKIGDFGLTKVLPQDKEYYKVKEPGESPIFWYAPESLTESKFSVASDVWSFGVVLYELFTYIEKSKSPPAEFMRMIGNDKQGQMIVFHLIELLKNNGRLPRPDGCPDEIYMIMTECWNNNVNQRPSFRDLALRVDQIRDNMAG

| SMILES | IC50 (JAK2 tyrosine kinase) [nM] | IC50 (JAK3 tyrosine kinase) [nM] |
| --- | --- | --- |
| COC1(C2CC2)CN(c2cc(Nc3cnccn3)nc(N[C@@H](C)c3ccc(F)cc3)c2)C1 [Example 211, (S)-4-(3-Cyclopropyl-3-methoxyazetidin-1-yl)-N^2-[1-(4-fluorophenyl)ethyl]-N^6-(pyrazin-2-yl)pyridine-2,6-diamine hydrochloride] | 5.6 | 86 |
| CC(=O)Nc1cc(Nc2cnccn2)nc(N[C@@H](C)c2ccc(F)cc2)c1 [Example 208, (S)—N-{2-[1-(4-Fluorophenyl)ethylamino]-6-(pyrazin-2-ylamino)pyridin-4-yl}acetamide] | 1.4 | 100 |
| C[C@H](Nc1cc(-c2ccoc2)cc(Nc2cnccn2)n1)c1ccc(F)cc1 [Example 123, (S)—N^2-[1-(4-Fluorophenyl)ethyl]-4-(furan-3-yl)-N^6-(pyrazin-2-yl)pyridine-2,6-diamine] | 5.4 | 330 |
| C[C@H](Nc1nc(Nc2cnccn2)cc(OCC2CCCO2)n1)c1ccc(F)cc1 (stereo partly drawn) [Example 94, N^2-[(S)-1-(4-Fluorophenyl)ethyl]-N^4-(pyrazin-2-yl)-6-[(tetra hydrofuran-2-yl)methoxy]pyrimidine-2,4-diamine] | 1.7 | 77 |
| COCCNC(=O)C1CN(c2cc(Nc3cnccn3)nc(N[C@@H](C)c3ccc(F)cc3)n2)C1 [Example 194, (S)-1-{2-[1-(4-Fluorophenyl)ethylamino]-6-(pyrazin-2-ylamino)pyrimidin-4-yl}-N-(2-methoxyethyl) azetidine-3-carboxamide] | 0.79 | 84 |
| C[C@H](Nc1nc(Nc2cnccn2)cc(N2CCN(S(C)(=O)=O)CC2)n1)c1ccc(Cl)cc1 [Example 100, (S)—N^2-[1-(4-Chlorophenyl)ethyl]-6-[4-(methylsulfonyl)piperazin-1-yl]-N^4-(pyrazin-2-yl)pyrimidine-2,4-diamine hydrochloride] | 0.52 | 47 |
| Cc1cnc(Nc2cc(-c3cnn(C)c3)cc(N[C@@H](C)c3ccc(F)cc3)n2)cn1 [Example 214, (S)—N^2-[1-(4-Fluorophenyl)ethyl]-4-(1-methyl-1H-pyrazol-4-yl)-N^6-(5-methylpyrazin-2-yl)pyridine-2,6-diamine] | 5.5 | 380 |
| C[C@H](Nc1nc(Nc2cnccn2)ccc1C(=O)N(C)C)c1ccc(F)cc1 [Example 186, (S)-2-[1-(4-Fluorophenyl)ethylamino]-N,N-dimethyl-6-(pyrazin-2-ylamino) nicotinamide] | 5.5 | 240 |
| C[C@H](Nc1cc(N2CC(N3CCOCC3)C2)cc(Nc2cnccn2)n1)c1ccc(F)cc1 [Example 233, (S)—N^2-[1-(4-Fluorophenyl)ethyl]-4-[3-morpholinoazetidin-1-yl]-N^6-(pyrazin-2-yl)pyridine-2,6-diamine] | 5.8 | 140 |

Other lines, results leading:

| IC50 (JAK2 tyrosine kinase) [nM] | IC50 (JAK3 tyrosine kinase) [nM] | SMILES |
| --- | --- | --- |
| 9 | 2300 | C[C@H](Nc1nc(Nc2cnccn2)cc(N2CCC2=O)n1)c1ccc(F)cc1 [Example 45, (S)-1-{2-[1-(4-Fluorophenyl)ethylamino]-6-(pyrazin-2-ylamino)pyrimidin-4-yl}azetidin-2-one] |
| 3.7 | 58 | CCOC(=O)C1CCN(c2cc(Nc3cnccn3)nc(N[C@@H](C)c3ccc(F)cc3)n2)CC1 [Example 83, Ethyl (S)-1-{2-[1-(4-fluorophenyl)ethylamino]-6-(pyrazin-2-ylamino)pyrimidin-4-yl}piperidin-4-carboxylate] |
| 1.3 | 82 | C[C@H](Nc1nc(Nc2cnccn2)cc(-c2ccc(C(N)=O)nc2)n1)c1ccc(F)cc1 [Example 57, (S)-5-{2-[1-(4-Fluorophenyl)ethylamino]-6-(pyrazin-2-ylamino)pyrimidin-4-yl}picolinamide] |
| 6.4 | 440 | CC(=O)c1cc(Nc2cnccn2)nc(N[C@@H](C)c2ccc(F)cc2)c1 [Example 182, (S)-1-{2-[1-(4-Fluorophenyl)ethylamino]-6-(pyrazin-2-ylamino)pyridin-4-yl}ethanone hydrochloride] |
| 0.67 | 44 | C[C@H](Nc1nc(Nc2cnccn2)cc(N2C[C@H](O)[C@@H](O)C2)n1)c1ccc(F)cc1 [Example 110, (3S,4S)-1-{2-[(S)-1-(4-Fluorophenyl)ethylamino]-6-(pyrazin-2-ylamino)pyrimidin-4-yl}pyrrolidin-3,4-diol] |
| 1.6 | 58 | C[C@H](Nc1nc(Nc2cnccn2)cc(N2CC(C(=O)NC3CC3)C2)n1)c1ccc(F)cc1 [Example 197, (S)—N-(Cyclopropyl)-1-{2-[1-(4-fluorophenyl)ethylamino]-6-(pyrazin-2-ylamino)pyrimidin-4-yl}azetidine-3-carboxamide] |
| 2.3 | 170 | C[C@H](Nc1nc(Nc2cnccn2)cc(-c2cncs2)n1)c1ccc(F)cc1 [Example 49, (S)—N^2-[1-(4-Fluorophenyl)ethyl]-N^4-(pyrazin-2-yl)-6-(thiazol-5-yl)pyrimidine-2,4-diamine] |
| 6.1 | 380 | C[C@H](Nc1nc(Nc2cnccn2)cc(-n2cc(C(=O)O)cn2)n1)c1ccc(F)cc1 [Example 90, (S)-1-{2-[1-(4-Fluorophenyl)ethylamino]-6-(pyrazin-2-ylamino)pyrimidin-4-yl}-1H-pyrazole-4-carboxylic acid] |
| 1.6 | 60 | C[C@H](Nc1nc(Nc2cnccn2)cc(N2CC(C(=O)NCC3CC3)C2)n1)c1ccc(F)cc1 [Example 198, (S)—N-(Cyclopropylmethyl)-1-{2-[1-(4-fluorophenyl)ethylamino]-6-(pyrazin-2-ylamino)pyrimidin-4-yl}azetidine-3-carboxamide] |

— US8586591B2, “Aminopyrazine derivative and medicine” (Nippon Shinyaku Co., Ltd., priority 2009, dated 2013)
